Results as given in patent US20240067639A1, “SMALL MOLECULES THAT TARGET THE RNA THAT CAUSES ALS” (EXPANSION THERAPEUTICS, INC., priority 2020, published 2024).
Like-named read-outs stand apart in the source and are kept apart here.

Tests used:
[1] = molecular target: biotinylated r(G4C2)8 RNA and hnRNP H1-His6; test: TR-FRET hnRNP H binding assay
Protocol: TR-FRET hnRNP H Binding Assay. The TR-FRET assays were performed as previously described (Disney et al., 2012) except the final concentrations of biotinylated r(G4C2)8 (SEQ ID NO: 2) RNA and hnRNP H1-His6 were 80 nM and 75 nM, respectively. The RNA was folded by heating to 95° C. for 5 min in 1× Folding Buffer followed by slowly cooling to room temperature. The buffer was adjusted to 1×TR-FRET Assay Buffer followed by addition of compound. The mixture was incubated for 15 min at room temperature and then hnRNP H1-His6 was added. After an additional 15 min incubation, streptavidin-XL665 (HTRF, Cisbio Bioassays) and anti-His6-Tb (HTRF, Cisbio Bioassays) were added to a final concentration of 40 nM and 0.44 ng/μL, respectively. After incubating for 1 h, TR-FRET was measured as previously described. The IC50s were either calculated by fitting the equation (1) in Graphpad Prism.

[2] = system: RAN translation of (G4C2)66-No ATG-GFP in HEK293T cells; test: Cell-based assay of RAN translation inhibition (GFP/mCherry reporter); conditions: Homo sapiens, HEK-293T, 24 h, read-out: RANT IC25
[3] = Table D, HEK293T, 24 h treatment
[4] = Table F, HEK293T, 24 h treatment

Ki ([1]; Table D)	SMILES	IC25 [2, 3]	also measured
–	Cc1c2ccncc2cc2c3cc(OCCN4CCC(C)CC4)ccc3n(C)c12 [Compound 227, 5,6-dimethyl-9-(2-(4-methylpiperidin-1-yl)ethoxy)-6H-pyrido[4,3-b]carbazole]	–	Ki ([1]; Table F): 1.4 µM; IC25 [2]: > 5 µM
> 200 µM	Cc1c2ccncc2cc2c3cccc(OCCN4CCOCC4)c3n(C)c12 [Example 64, 4-(2-((5,6-dimethyl-6H-pyrido[4,3-b]carbazol-7-yl)oxy)ethyl) morpholine]	> 5 µM	–
–	Cc1c2ccncc2cc2c1[nH]c1ccc(OCCN3CCOCC3)cc12 [Compound 250, 4-(2-((5-methyl-6H-pyrido[4,3-b]carbazol-9-yl)oxy)ethyl)morpholine]	–	Ki ([1]; Table F): 11 µM; IC25 [2, 4]: > 5 µM
10 µM	Cc1c2ccncc2cc2c3cc(OCCCN4CCCC4)ccc3n(C)c12 [Compound 9, 5,6-dimethyl-9-(3-(pyrrolidin-1-yl)propoxy)-6H-pyrido[4,3-b]carbazole]	0.27 µM	–
3.6 µM	Cc1c2ccncc2cc2c3cc(C(=O)NCCO)ccc3n(C)c12 [Example 78, N-(2-hydroxyethyl)-5,6-dimethyl-6H-pyrido[4,3-b]carbazole-9-carboxamide]	1.6 µM	–
0.84 µM	Cc1c2ccncc2cc2c3cc(OC[C@@H]4CCCN4C)ccc3n(C)c12 [Example 37, (S)-5,6-dimethyl-9-((1-methylpyrrolidin-2-yl)methoxy)-6H-pyrido[4,3-b]carbazole]	2.3 µM	–
–	Cc1c2ccncc2cc2c3cc(OC[C@H](C)N(C)C)ccc3n(C)c12 [Compound 230, (S)-1-((5,6-dimethyl-6H-pyrido[4,3-b]carbazol-9-yl)oxy)-N,N-dimethylpropan-2-amine]	–	Ki ([1]; Table F): 1.2 µM; IC25 [2, 4]: 4.3 µM
6.1 µM	CNC(=O)COc1ccc2c(c1)c1cc3cnccc3c(C)c1n2C [Example 34, 2-((5,6-dimethyl-6H-pyrido[4,3-b]carbazol-9-yl)oxy)-N-methylacetamide]	1.2 µM	–
–	Cc1c2ccncc2cc2c3cccc(OCCN(C)C)c3n(C)c12 [Compound 220, 2-((5,6-dimethyl-6H-pyrido[4,3-b]carbazol-7-yl)oxy)-N,N-dimethylethanamine]	–	Ki ([1]; Table F): 2.3 µM; IC25 [2]: > 5 µM
> 200 µM	CCn1c2ccc(OCCN3CCOCC3)cc2c2cc3cnccc3c(C)c21 [Example 62, 4-[2-(6-ethyl-5-methyl-pyrido[4,3-b]carbazol-9-yl)oxyethyl]morpholine]	> 5 µM	–
36 µM	CNC(=O)c1ccc2c(c1)c1cc3cnccc3c(C)c1n2C [Example 70, N,5,6-trimethyl-6H-pyrido[4,3-b]carbazole-9-carboxamide]	3.6 µM	–
1.2 µM	Cc1c2ccncc2cc2c3cc(C(=O)NCCN4CCCCC4)ccc3n(C)c12 [Example 77, 5,6-dimethyl-N-(2-(piperidin-1-yl)ethyl)-6H-pyrido[4,3-b]carbazole-9-carboxamide]	1.7 µM	–
–	Cc1c2ccnc(C(=O)N[C@H](C)CN(C)C)c2cc2c3cccc(OCCCN4CCN(C)CC4)c3n(C)c12 [Compound 253, (R)—N-(1-(dimethylamino)propan-2-yl)-5,6-dimethyl-7-(3-(4-methylpiperazin-1-yl)propoxy)-6H-pyrido[4,3-b]carbazole-1-carboxamide]	–	Ki ([1]; Table F): 14 µM; IC25 [2, 4]: > 5 µM
29 µM	Cc1c2ccncc2cc2c3cc(C(=O)NCCC4CCN(C)CC4)ccc3n(C)c12 [Example 75, 5,6-dimethyl-N-(2-(1-methylpiperidin-4-yl)ethyl)-6H-pyrido[4,3-b]carbazole-9-carboxamide]	1.4 µM	–
–	Cc1c2ccncc2cc2c1sc1ccc(OCCN(C)C)cc12 [Compound 224, N,N-dimethyl-2-((5-methylbenzo[4,5]thieno[2,3-g]isoquinolin-9-yl)oxy)ethanamine]	–	Ki ([1]; Table F): 8.6 µM; IC25 [2]: > 5 µM
20 µM	COc1ccc2c3cc4c(C(=O)N[C@H](C)CN(C)C)nccc4c(C)c3n(C)c2c1 [Example 82, (R)—N-(1-(dimethylamino)propan-2-yl)-8-methoxy-5,6-dimethyl-6H-pyrido[4,3-b]carbazole-1-carboxamide]	> 5 µM	–
38 µM	Cc1c2ccncc2cc2c3cc(OCc4nccn4C)ccc3n(C)c12 [Example 35, 5,6-dimethyl-9-((1-methyl-1H-imidazol-2-yl)methoxy)-6H-pyrido[4,3-b]carbazole]	> 5 µM	–
9.5 µM	Cc1c2ccncc2cc2c3cc(OCCN)ccc3n(C)c12 [Example 32, 2-((5,6-dimethyl-6H-pyrido[4,3-b]carbazol-9-yl)oxy)ethanamine]	1.4 µM	–
–	Cc1c2ccncc2cc2c3cc(OCC4=NCCN4)ccc3n(CC(C)(C)C)c12 [Compound 252, 9-((4,5-dihydro-1H-imidazol-2-yl)methoxy)-5-methyl-6-neopentyl-6H-pyrido[4,3-b]carbazole]	–	Ki ([1]; Table F): > 200 µM; IC25 [2, 4]: > 5 µM

Ki ([1]; Table D)	SMILES	IC25 [2, 3]	also measured
–	Cc1c2ccncc2cc2c3cccc(OCC4=NCCN4)c3n(C)c12 [Compound 232, 7-((4,5-dihydro-1H-imidazol-2-yl)methoxy)-5,6-dimethyl-6H-pyrido[4,3-b]carbazole]	–	Ki ([1]; Table F): 2 µM; IC25 [2, 4]: > 5 µM
> 200 µM	COc1ccc2c(c1)c1cc3cnccc3c(C)c1n2C[C@@H](O)c1ccccc1 [Compound 19, (S)-2-(9-methoxy-5-methyl-6H-pyrido[4,3-b]carbazol-6-yl)-1-phenylethan-1-ol]	–	–
> 200 µM	COc1ccc2[nH]c3c(C)c4cnccc4cc3c2c1 [Example 49, 7-methoxy-11-methyl-10H-pyrido[3,4-b]carbazole]	–	–
10 µM	Cc1c2ccncc2cc2c3cc(OCCCC(=N)N)ccc3n(C)c12 [Example 44a, 4-((5,6-dimethyl-6H-pyrido[4,3-b]carbazol-9-yl)oxy)butanimidamide]	–	–
> 200 µM	COC(=O)CCCOc1ccc2c(c1)c1cc3cnccc3c(C)c1n2C [Example 44b, methyl 4-((5,6-dimethyl-6H-pyrido[4,3-b]carbazol-9-yl)oxy)butanoate]	–	–
> 200 µM	COc1ccc2c(c1)c1cc3cnccc3c(C)c1n2Cc1cnn(C)c1 [Compound 14, 9-methoxy-5-methyl-6-((1-methyl-1H-pyrazol-4-yl)methyl)-6H-pyrido[4,3-b]carbazol]	–	–
> 200 µM	Cc1c2ccncc2cc2c3cc(OCCN4CCC(F)(F)CC4)ccc3n(C)c12 [Example 40, 9-(2-(4,4-difluoropiperidin-1-yl)ethoxy)-5,6-dimethyl-6H-pyrido[4,3-b]carbazole]	–	–
1.3 µM	Cc1c2ccncc2cc2c3cc(OCC(=O)NCCN(C)C)ccc3n(C)c12 [Example 59, 2-((5,6-dimethyl-6H-pyrido[4,3-b]carbazol-9-yl)oxy)-N-(2-(dimethylamino)ethyl)-acetamide]	–	–
–	COc1cccc2c3cc4c(C(=O)N[C@H](C)CN(C)C)nccc4c(C)c3n(C)c12 [Compound 240, (R)—N-(1-(dimethylamino)propan-2-yl)-7-methoxy-5,6-dimethyl-6H-pyrido[4,3-b]carbazole-1-carboxamide]	–	Ki ([1]; Table F): 20 µM
> 200 µM	COc1ccc2[nH]c3c(c2c1)C(=O)c1cnccc1C3=O [Example 47, 9-methoxy-5H-pyrido[4,3-b]carbazole-5,11(6H)-dione]	–	–
> 200 µM	Cc1c2ccncc2cc2c3cc(O)ccc3n(C)c12 [Compound 2, 5,6-dimethyl-6H-pyrido[4,3-b]carbazol-9-ol]	–	–
> 200 µM	COc1ccc2[nH]c3c(C)c4ccncc4c(O)c3c2c1 [Example 48, 9-methoxy-5-methyl-6H-pyrido[4,3-b]carbazol-11-ol]	–	–
–	Cc1c2ccncc2cc2c3cc(OCc4ncc[nH]4)ccc3n(C)c12 [Compound 251, 9-((1H-imidazol-2-yl)methoxy)-5,6-dimethyl-6H-pyrido[4,3-b]carbazole]	–	Ki ([1]; Table F): 19 µM
> 200 µM	Cc1c2ccncc2cc2c1sc1ccc(OCCN3CCOCC3)cc12 [Example 81, 4-[2-(5-methylbenzothiopheno[2,3-g]isoquinolin-9-yl)oxyethyl]morpholine]	–	–
> 200 µM	COc1ccc2sc3c(C)c4ccncc4cc3c2c1 [Example 67, 9-methoxy-5-methyl-benzothiopheno[2,3-g]isoquinoline]	–	–
> 200 µM	COc1ccc2c(c1)c1cc3cnccc3c(C)c1n2CCN(C)C [Compound 20, 2-(9-methoxy-5-methyl-6H-pyrido[4,3-b]carbazol-6-yl)-N,N-dimethylethan-1-amine]	–	–
4.6 µM	Cn1c2ccc(OCCN3CCOCC3)cc2c2cc3cnccc3cc21 [Example 46, 4-[2-(6-methylpyrido[4,3-b]carbazol-9-yl)oxyethyl]morpholine]	–	–
> 200 µM	COc1ccc2c(c1)c1cc3cnccc3c(C)c1n2CCCN1CCN(C)CC1 [Compound 22, 9-methoxy-5-methyl-6-(3-(4-methylpiperazin-1-yl)propyl)-6H-pyrido[4,3-b]carbazole]	–	–

SMILES	Ki ([1]; Table D)	IC25 [2, 3]	also measured
Cc1c2ccncc2cc2c3c(OCCN(C)C)cccc3n(C)c12 [Example 55, 2-((5,6-dimethyl-6H-pyrido[4,3-b]carbazol-10-yl)oxy)-N,N-dimethylethanamine]	1.5 µM	–	IC25 [2]: 0.92 µM
Cc1c2ccncc2cc2c3ccc(OCCN4CCOCC4)cc3n(C)c12 [Example 53, 4-(2-((5,6-dimethyl-6H-pyrido[4,3-b]carbazol-8-yl)oxy)ethyl)morpholine]	> 200 µM	–	–
